Data from ChEMBL document CHEMBL5126544, “Recent results from non-basic glycosidase inhibitors: How structural diversity can inform general strategies for improving inhibition potency” (Eur J Med Chem, 2022).

What was measured:
[1] = Inhibition of rat intestinal maltase
[2] = Inhibition of rat intestinal maltase using maltose as substrate incubated for 15 mins by spectometric analysis
[3] = Inhibition of rat intestinal sucrase using sucrose as substrate incubated for 15 mins by spectometric analysis
[4] = Inhibition of baker's yeast alpha-glucosidase using PNPG as substrate preincubated for 10 mins followed by substrate addition and measured after 30 mins by microplate reader analysis; set-up: species or system Saccharomyces cerevisiae
[5] = Inhibition of baker's yeast alpha-glucosidase using p-nitrophenyl-alpha-glucopyranoside as substrate by spectrophotometric analysis; set-up: species or system Saccharomyces cerevisiae
[6] = Inhibition of human alpha-fucosidase
[7] = Inhibition of beta glucosidase (unknown origin); set-up: species or system Homo sapiens
[8] = Inhibition of Bacillus stearothermophilus alpha-glucosidase type IV using p-nitrophenyl-alpha-D-glucopyranoside as substrate preincubated for 15 mins followed by substrate addition and measured after 35 mins by microtiter plate reader analysis; set-up: species or system Geobacillus stearothermophilus
[9] = tested on: Rattus norvegicus; assay: Hypoglycemic activity in Wistar rat assessed as reduction in postprandial blood glucose level at 10 mg/kg, po administered for 10 mins followed by sucrose challenge and measured after 30 mins post oral sucrose challenge; format: functional; set-up: scale not given: the % may be the effect or the level left; conditions: time 40 min
[10] = Inhibition of yeast alpha-glucosidase; set-up: species or system Saccharomyces cerevisiae
[11] = Inhibition of alpha-glucosidase (unknown origin) using PNP glycoside as substrate preincubated for 30 mins followed by substrate addition and measured after 60 mins by spectrophotometric analysis
[12] = Inhibition of baker's yeast alpha-glucosidase using PNP-G as substrate preincubated for 10 mins followed by substrate addition and measured after 20 mins; set-up: species or system Saccharomyces cerevisiae
[13] = Inhibition of recombinant Streptococcus pneumoniae NanB using MUNANA as substrate
[14] = organism: Homo sapiens; assay: Potency index, ratio of acarbose IC50 to test compound IC50 for inhibition of alpha-glucosidase (unknown origin) using PNP glycoside as substrate preincubated for 30 mins followed by substrate addition and measured after 60 mins by spectrophotometric analysis; conditions: time 90.0 min
[15] = Inhibition of saccharomyces cerevisiae alpha-glucosidase using PNP-G as substrate by spectrophotometric analysis
[16] = Inhibition of saccharomyces cerevisiae alpha-glucosidase using PNPG as substrate preincubated for 2 mins followed by substrate addition for 15 mins by microplate reader analysis
[17] = Inhibition of almond beta-glucosidase using PNPG as substrate preincubated for 10 mins followed by substrate addition and measured after 20 mins by spectrophotometric analysis; set-up: species or system Prunus dulcis
[18] = Inhibition of Bacillus stearothermophilus alpha-glucosidase using PNP-G as substrate incubated for 20 mins; set-up: species or system Geobacillus stearothermophilus
[19] = Inhibition of saccharomyces cerevisiae alpha-glucosidase using PNP-G as substrate incubated for 20 mins
[20] = tested on: Saccharomyces cerevisiae; assay: Inhibition of baker's yeast alpha-glucosidase at 1 uM using p-nitrophenyl-alpha-D-glucopyranoside as substrate preincubated for 30 mins followed by substrate addition and measured after 5 mins relative to control; conditions: time 35.0 min
[21] = Inhibition of alpha-amyloglucosidase (unknown origin) assessed as reduction in conversion of starch to glucose using starch as substrate preincubated with substrate for 20 mins followed by enzyme addition and measured after 30 mins
[22] = Inhibition of saccharomyces cerevisiae alpha-glucosidase using pNPG as substrate preincubated for 15 mins followed by substrate addition
[23] = Inhibition of alpha-glucosidase (unknown origin) using p-nitrophenyl-alpha-D-glucopyranoside as substrate preincubated for 10 mins followed by substrate addition and measured after 30 mins
[24] = Inhibition of Caldocellum-saccharolyticum […] using 4-nitrophenyl beta-d-glucopyranoside preincubated for 30 to 60 mins followed by substrate addition; set-up: species or system Caldicellulosiruptor saccharolyticus
[25] = Inhibition of saccharomyces cerevisiae alpha-glucosidase using p-nitrophenyl-alpha-D-glucopyranoside as substrate preincubated for 15 mins followed by substrate addition and measured after 20 mins by spectrophotometric analysis

OC[C@@H]1[C@@H](O)[C@H](O)C[S@@+]1C[C@@H](O)[C@@H](O)CO
IC50 [1]: 1.6 µM

Oc1cc(O)c2c(c1)O[C@H](c1ccc(O)c(O)c1)[C@@H](O)C2 [CIANIDANOL]
IC50 [2]: 1350 µM
IC50 [3]: 2490 µM

Cc1cc2nc(-c3ccc(C(=O)N/N=C/c4ccc(O)cc4O)cc3)[nH]c2cc1C
IC50 [4]: 8 µM

COc1ccc(/C=N/NC(=O)c2ccc(-c3nc4cc(C)c(C)cc4[nH]3)cc2)c(O)c1
IC50 [4]: 8 µM

CC(=O)NC[C@H]1N[C@H](CO)[C@@H](O)[C@@H]1O
IC50 [5]: 280 µM

C[C@@H]1N[C@H](CNC(=O)CCc2c[nH]c3ccccc23)[C@@H](O)[C@H](O)[C@@H]1O
Ki [6]: 0.000105 µM

O[C@H]1[C@@H](O)Cn2cc(CCc3ccccc3)nc2[C@@H]1O
Ki [7]: 0.004 µM

COc1cc([C@@H]2c3c(O)cc(O)cc3[C@@H]3[C@H]2CO[C@H]3c2ccc(O)c(O)c2)cc(OC)c1O
IC50 [8]: 11 µM
Activity [9]: 10.2%

OC[C@H]1OC(O)[C@H](O)[C@@H](O)[C@@H]1O (stereo not given in full) [DEXTROSE]
IC50 [10]: 2.6 µM

CCCCOc1ccc(-c2nc3ccc(Br)cc3[nH]2)cc1
IC50 [11]: 25 µM

CCOC(=O)/C=C/c1ccc(OC)cc1 [4-METHOXY ETHYL CINNAMATE]
IC50 [12]: 50 µM

Cc1cccc(CNCCS(=O)(=O)O)c1
IC50 [13]: 57 µM

Oc1ccc(-c2nc3ccc(Br)cc3[nH]2)cc1
Ratio IC50 [14]: 5
IC50 [11]: 8 µM

O=c1c(-c2ccc(O)cc2)coc2cc(O)cc(O)c12 [GENISTEIN]
IC50 [10]: 10.4 µM

Oc1ccc(/C=C/c2cc(O)cc(O)c2)cc1 [RESVERATROL]
IC50 [8]: 24 µM

COc1ccc(-c2oc3cc(O[C@H]4O[C@H](CO)[C@@H](O)[C@H](O)[C@H]4O)c(OC)c(O)c3c(=O)c2O)cc1CCC(C)COC(C)=O (stereo not given in full)
IC50 [15]: 66 µM

Oc1cc(O)cc(/C=C/c2cc(O)c(O)c3c2[C@H](c2cc(O)cc(O)c2)[C@@H](c2cc(O)c(O)c(O)c2)O3)c1
IC50 [8]: 4.9 µM

O=C(NC[C@H]1N[C@H](CO)[C@@H](O)[C@@H]1O)C1Cc2ccccc21 (stereo not given in full)
IC50 [5]: 0.15 µM
Ki [5]: 0.053 µM

C/C=C(\C)C(=O)NCCc1ccc(OCC=C(C)C)cc1
IC50 [16]: 195 µM

O[C@@H]1[C@H](O)Cn2c(nc3ccccc32)[C@@H]1O
IC50 [17]: 5 µM

CC1(C)O[C@H]2Cc3c(O)cc(O)cc3O[C@@H]2c2cc(O)c(O)cc21
IC50 [18]: 0.7 µM
IC50 [19]: 1.2 µM

Cc1cc2nc(-c3ccc(C(=O)N/N=C/c4cccc(O)c4O)cc3)[nH]c2cc1C
IC50 [4]: 8 µM

Cc1cc2nc(-c3ccc(C(=O)N/N=C/c4cc(O)c(O)c(O)c4)cc3)[nH]c2cc1C
IC50 [4]: 8 µM

C[C@H]1O[C@H](O[C@H]2[C@H](O)[C@@H](O)[C@@H](O[C@H]3[C@H](O)[C@@H](O)C(O)O[C@@H]3CO)O[C@@H]2CO)[C@H](O)[C@@H](O)[C@@H]1N[C@H]1C=C(CO)[C@@H](O)[C@H](O)[C@H]1O (stereo not given in full) [ACARBOSE]
inhibition [20]: 56.5%
IC50 [11]: 38 µM
IC50 [21]: 15 µM

Oc1ccc(/C=C/c2cc(O)cc3c2[C@H](c2cc(O)cc(O)c2)[C@@H](c2ccc(O)c(O)c2)O3)cc1 [SCIRPUSIN A]
IC50 [8]: 8.3 µM

Cc1cccc2nc(-c3ccc(O)c(O)c3)[nH]c12
IC50 [22]: 25 µM

Cc1cc2nc(-c3ccc(C(=O)N/N=C/c4ccc(O)c(O)c4)cc3)[nH]c2cc1C
IC50 [4]: 12 µM

COc1ccc(O)cc1/C=N/NC(=O)c1ccc(-c2nc3cc(C)c(C)cc3[nH]2)cc1
IC50 [4]: 8 µM

Cc1cc2nc(-c3ccc(C(=O)N/N=C/c4cc(O)ccc4O)cc3)[nH]c2cc1C
IC50 [4]: 8 µM

O=C1NC(=O)C(Cc2ccc(Nc3nc4ccccc4n3Cc3ccccc3)cc2)S1 (stereo not given)
IC50 [21]: 4 µM

COC(=O)/C=C/c1ccc(OCC=C(C)C)c(OC)c1
IC50 [16]: 98 µM

O=C1c2c(Cl)c(Cl)c(Cl)c(Cl)c2C(=O)N1CCc1ccccc1
IC50 [23]: 6 µM

OC[C@@H]1[C@@H](O)[C@H](O)[C@@H](O)c2nc(CCc3ccccc3)cn21
Ki [24]: 0.00011 µM

Cn1c(NCc2ccc(CC3SC(=O)NC3=O)cc2)nc2ccccc21 (stereo not given)
IC50 [21]: 9 µM

O=C1c2c(Cl)c(Cl)c(Cl)c(Cl)c2C(=O)N1CCCCc1ccccc1
IC50 [23]: 2 µM

O=[N+]([O-])c1ccccc1CO[C@@H](CO)[C@H](O)C[S+]1C[C@@H](O)[C@H](O)[C@H]1CO (single isomer, unassigned)
IC50 [1]: 0.042 µM

COc1ccc(/C=C/C(=O)O)cc1 [4-METHOXYCINNAMIC ACID]
IC50 [12]: 44 µM

Cc1cccc2nc(-c3ccccc3Cl)[nH]c12
IC50 [22]: 5 µM

COc1ccc(-c2nc3ccc(Br)cc3[nH]2)c(O)c1
IC50 [11]: 38 µM

O=C1c2c(Cl)c(Cl)c(Cl)c(Cl)c2C(=O)N1CCCCCc1ccccc1
IC50 [23]: 3.5 µM

Cc1cccc2nc(-c3ccccc3O)[nH]c12
IC50 [22]: 16 µM

Cc1cccc2nc(-c3ccccc3[N+](=O)[O-])[nH]c12
IC50 [22]: 45 µM

O=[N+]([O-])c1ccc2nc(Cc3ccc(Cl)cc3Cl)n(Cc3nnc(S)n3-c3ccccc3)c2c1
IC50 [25]: 40 µM

NNC(=O)Cn1c(Cc2ccc(Cl)cc2Cl)nc2ccc([N+](=O)[O-])cc21
IC50 [25]: 10 µM

C/C(=C\O)[C@@H]1OC(=O)[C@H]2O[C@@]23[C@@]1(C)CC[C@@H]1[C@@]2(CCC(=O)[C@]13C)COC(=O)C[C@@H]2O
IC50 [16]: 102 µM

O=C1NC(=O)C(Cc2ccc(CNc3nc4ccccc4n3Cc3ccccc3)cc2)S1 (stereo not given)
IC50 [21]: 5 µM

Brc1cccc(-c2nc3ccc(Br)cc3[nH]2)c1
IC50 [11]: 21 µM

Cc1cccc2nc(-c3ccccc3F)[nH]c12
IC50 [22]: 34 µM

CCCCC1(CCCC)O[C@H]2Cc3c(O)cc(O)cc3O[C@@H]2c2cc(O)c(O)cc21
IC50 [19]: 2.1 µM

O=S(=O)(O)CCNCc1cccc(Cl)c1
IC50 [13]: 39 µM

Oc1cc(O)cc(/C=C/c2ccc(O)c(O)c2)c1 [PICEATANNOL]
IC50 [8]: 23 µM

O=C1c2c(Cl)c(Cl)c(Cl)c(Cl)c2C(=O)N1CCCCCCc1ccccc1
IC50 [23]: 7 µM

OC[C@@H]1[C@@H](O)[C@H](O)[C@@H](O)c2nccn21
Ki [24]: 0.02 µM

O[C@H]1[C@@H](O)Cn2ccnc2[C@@H]1O
Ki [7]: 0.001 µM

COc1ccc(-c2nc3cccc(C)c3[nH]2)c(O)c1
IC50 [22]: 30 µM

COc1cc([C@@H]2c3c(O)cc(O)cc3[C@@H]3[C@H]2CO[C@H]3c2cc(O)c(O)c(O)c2)cc(OC)c1O
IC50 [8]: 6.5 µM

O=[N+]([O-])c1ccc2nc(Cc3ccc(Cl)cc3Cl)n(Cc3nnc(S)o3)c2c1
IC50 [25]: 27 µM

COc1ccc(O)c(-c2nc3cccc(C)c3[nH]2)c1
IC50 [22]: 45 µM

CCCCCCC1(CCCCCC)O[C@H]2Cc3c(O)cc(O)cc3O[C@@H]2c2cc(O)c(O)cc21
IC50 [18]: 1.1 µM
IC50 [19]: 0.9 µM

Oc1cc(O)cc(/C=C/c2cc(O)c(O)c(O)c2)c1
IC50 [8]: 19 µM
Activity [9]: 12.1%

O=C1c2c(Cl)c(Cl)c(Cl)c(Cl)c2C(=O)N1Cc1ccccc1
IC50 [23]: 11 µM

CC(=O)NC[C@H]1N[C@@H](C)[C@@H](O)[C@@H](O)[C@@H]1O
Ki [6]: 0.00447 µM

O=C1c2c(Cl)c(Cl)c(Cl)c(Cl)c2C(=O)N1CCCc1ccccc1
IC50 [23]: 4.5 µM

Cn1c(Nc2ccc(CC3SC(=O)NC3=O)cc2)nc2ccccc21 (stereo not given)
IC50 [21]: 9 µM

COc1cc2ccc(=O)oc2cc1O [SCOPOLETIN]
IC50 [16]: 4.6 µM

Oc1ccccc1-c1nc2ccc(Br)cc2[nH]1
IC50 [11]: 38 µM
